According to paper PMC8510480, “Searching Anti-Zika Virus Activity in 1H-1,2,3-Triazole Based Compounds” (Molecules, 2021):
Several values for one entry are separate records, joined by “and”; a condition that tells them apart may be missing. Equal values may be shown once. Read-outs that look alike come from different tables or passages of the source.

Legend:
[1] = Cytotoxicity test with MTT method in Vero cells; type: cell-based, African green monkey; details: African green monkey, 5 days, read-out: CC50 (50% cytotoxic concentration)
Protocol: (§1) The cytotoxicity of compounds 1–7 to Vero cells, an epithelial cell line derived from the kidney of an African green monkey, was tested using the 3-(4,5-dimethylthiazol-2-yl)-2,5-diphenyltetrazolium bromide (MTT) method. […] Based on CC20 values, which was the maximum concentration used for antiviral screening, 3b compound was the least toxic with a value of 527.2 µM. Compounds 2a and 2b were the most cytotoxic with values of 8.87 µM and 9.89 µM, respectively. […] The results from compounds 3a, 3b and 4a, 4b ranged from 40.69 to 527.20 µM. […] The presence of phthalimide group or sugar increases the values of CC20 and CC50 (Table 2 and Supplementary Material: Figure S1).
(§2) 96-well plates with 1 × 10^4 cell/well were used in this assay and prepared 24 h previously. The compounds were diluted in a 2:1 ratio so that a maximum of 0.8% DMSO was used. The concentrations used were 800, 400, 200, 100, 50, 25 and 12.5 µM. Dilutions were added to the wells in triplicate and incubated at 37 °C and 5% CO2 atmosphere. After 5 days, the wells were emptied and a 50 µL of 1 mg/mL MTT (3-(4,5-dimethylthiazol-2-yl)-2,5-diphenyltetrazolium bromide) (Sigma-Aldrich) solution was added, and the cells were incubated for 3–4 h for formation of formazan crystals through the mitochondria of viable cells. Then, medium was removed and 100 µL DMSO was added to the wells to solubilize the formazan crystals. With the aid of an incubator Tecnal TE-420 (Tecnal Equipamentos Científicos, Piracicaba, São Paulo, Brazil), the plates were homogenized at 120 RPM at 37 °C and the optical densities were read at 570 nm on a spectrophotometer BioTekTM ELx800TM (BioTek Instruments, Winooski, VT, USA).
(§3) The determination of the CC20 and CC50 values was obtained through the linear regression analysis of the XY graph generated by the values of the concentrations used in the test and the triplicate values of the viability. In the post-infection and pre-treatment tests, ANOVA and Dunnett tests were used, considering […] as the minimum significance value. All tests were performed in GraphPad Prism v.6.0 program (GraphPad Software, Inc., San Diego, CA, USA).

Vero cells [2] = assay: Cytotoxicity test with MTT method in Vero cells; type: cell-based, African green monkey; details: for CC20 (20% cytotoxic concentration): 5 days
Protocol: as §1, §2, §3

[3] = tested on: macrophages (peritoneal and J774A.1) and fibroblast cells; design: method as in PMID 33339081; details: ref [28]; cited from earlier work
ZIKV = assay: Post-infection test with ZIKV in Vero cells; type: cell-based, Zika virus
Protocol: We then investigated the activity of compound 4b after ZIKV infection in cells. As already noted in the screening test, 4b reduced ZIKV growth to levels similar to 6MMPr, a positive control previously described by our group. As in the pre-treatment test, four different concentrations were used, with the maximum being CC20 (136.90, 68.45, 34.22 and 17.11 µM). […] It is worth highlighting the constant decrease in the viral titer, even in lower concentrations, while the positive control 6MMPr reduces it only in the highest concentrations.
Statistical analysis compared the concentrations of each compound at each collection time (3 d.p.i. and 5 d.p.i.) with a t-test.
Figure 6 Comparison of anti-ZIKV activity between 6MMPr and 4b after three- and five-days post-infection (d.p.i.). 6MMPr and compound 4b were submitted to a post-infection test when Vero cells was infected with ZIKV at MOI 0.1 for 2 h then treated with compounds. Concentrations used in the test corresponded to CC20 (4b = 136.90 µM; 6MMPr = 60.50 µM), CC20/2 (4b = 68.45 µM; 6MMPr = 30.25 µM), CC20/4 (4b = 34.22 µM; 6MMPr = 15.13 µM) and CC20/8 (4b = 17.11 µM; 6MMPr = 7.56 µM). The experiment was done in triplicates and values are the mean and the SD. Statistical analysis was made between compounds using t-test on GraphPad Prism program. * = significative; ns = not statistically significant for p < 0.05. (a) 3 d.p.i. from both compounds. (b) 5 d.p.i. from both compounds.
96-well plates with 1 × 10^4 cell/well were used in this assay and prepared 24 h previously. Seven serial dilutions of the virus were prepared in DMEM + 2% FBS culture medium. After removing the culture medium from the plate, 50 µL of each dilution was added to the wells in several repetitions. The plate was incubated at 37 °C and 5% atm CO2 for 1 h. After this interval, each well of the plate received an additional 100 µL of DMEM + 2% FBS culture medium. The plate was incubated again, in the same parameters, for 5 days. Some columns of the plate were selected for use as a cell control (culture medium only, no virus). The reading was performed in an inverted optical microscope AE2000, Motic (Motic, Kowloon Bay, Hong Kong) counting positives wells by the presence of cytopathic effect and the determination of the sample title was performed with the aid of the Microsoft Office Excel program (Microsoft® Office, Redmond, WA, USA).
48-well plates with 2.5 × 10^4 cells/well were prepared 24 h previously. A ZIKV solution at MOI 0.1 was inoculated into the wells and the cells incubated at 37 °C and 5% CO2 atmosphere. After 2 h, the culture medium was removed, and the wells were washed with 1X PBS. 2:1 dilution of 4b (136.90 µM, 68.45 µM, 34.22 µM and 17.11 µM) and 6MMPr (60.50 µM, 30.25 µM, 15.13 µM and 7.56 µM) were added in triplicate. The cells were again incubated for 72 h and 120 h. The supernatants from the wells were collected and titrated.

Vero cells [4] = tested on: Vero cells; design: method as in PMID 28803932; details: ref [17], cited from earlier work

O=C1C=C(NCc2cn(CCN3C(=O)c4ccccc4C3=O)nn2)C(=O)c2ccccc21 [Compound 3b]
CC50 at 5 days [1]: 1190 µM | CC20 (20% cytotoxic concentration) (Vero cells [2]): 527.2 µM and 527.20 µM

O=C1C(Br)=C(NCc2cn(CCCN3C(=O)c4ccccc4C3=O)nn2)C(=O)c2ccccc21 [Compound 4a]
CC50 at 5 days [1]: 68.8 µM | CC20 (20% cytotoxic concentration) (Vero cells [2]): 40.69 µM

O=C1c2ccccc2C(=O)N1CCn1cc(-c2ccccc2)nn1 [4-phenyl-1-[2-(phthalimido-2-yl)ethyl]-1-H-1,2,3-triazole]
cytotoxicity [3]: low cytotoxicity

CC(=O)OC[C@H]1O[C@H](OCCCc2cn(C3=CC(=O)c4ccccc4C3=O)nn2)C=C[C@@H]1OC(C)=O [Compound 6d]
CC50 at 5 days [1]: 69.5 µM | CC20 (20% cytotoxic concentration) (Vero cells [2]): 38.61 µM

O=C1C=C(NCc2cn(CN3C(=O)c4ccccc4C3=O)nn2)C(=O)c2ccccc21 [Compound 3a]
CC50 at 5 days [1]: 470 µM | CC20 (20% cytotoxic concentration) (Vero cells [2]): 55.28 µM

CC(=O)OC[C@H]1O[C@H](OC(C)(C)c2cn(C3=CC(=O)c4ccccc4C3=O)nn2)C=C[C@@H]1OC(C)=O [Compound 6c]
CC50 at 5 days [1]: 58.1 µM | CC20 (20% cytotoxic concentration) (Vero cells [2]): 25.73 µM

CC(=O)OC[C@H]1O[C@H](OCc2cn(C3=CC(=O)c4ccccc4C3=O)nn2)C=C[C@@H]1OC(C)=O [Compound 6b]
CC50 at 5 days [1]: 48.7 µM | CC20 (20% cytotoxic concentration) (Vero cells [2]): 21.18 µM

O=C1C=C(n2cc(CCCO)nn2)C(=O)c2ccccc21 [Compound 2b]
CC50 at 5 days [1]: 38.8 µM | CC20 (20% cytotoxic concentration) (Vero cells [2]): 9.89 µM

O=C1C=C(n2cc(CCO)nn2)C(=O)c2ccccc21 [Compound 2a]
CC50 at 5 days [1]: 38 µM | CC20 (20% cytotoxic concentration) (Vero cells [2]): 8.87 µM

CSc1ncnc2c1ncn2[C@@H]1O[C@H](CO)[C@@H](O)[C@H]1O [Compound 6MMPr, 6-methylmercaptopurine riboside, reference compound]
% Viral Inhibition (ZIKV; 3 d.p.i., CC20 (4b 136.90 µM; 6MMPr 60.50 µM)): 99.8% | % Viral Inhibition (ZIKV; 3 d.p.i., CC20/2 (4b 68.45 µM; 6MMPr 30.25 µM)): 54.4% | % Viral Inhibition (ZIKV; 3 d.p.i., CC20/4 (4b 34.23 µM; 6MMPr 15.13 µM)): 42.7% | % Viral Inhibition (ZIKV; 3 d.p.i., CC20/8 (4b 17.11 µM; 6MMPr 7.6 µM), negative = increased virus titer compared to control): −93.4 * % | % Viral Inhibition (ZIKV; 5 d.p.i., CC20 (4b 136.90 µM; 6MMPr 60.50 µM)): 99.7% | % Viral Inhibition (ZIKV; 5 d.p.i., CC20/2 (4b 68.45 µM; 6MMPr 30.25 µM)): 96.8% | % Viral Inhibition (ZIKV; 5 d.p.i., CC20/4 (4b 34.23 µM; 6MMPr 15.13 µM)): 95.1% | % Viral Inhibition (ZIKV; 5 d.p.i., CC20/8 (4b 17.11 µM; 6MMPr 7.6 µM)): 81.1% | % Viral Inhibition (ZIKV; post-infection test, Table 4, concentration and time not stated): 97.8% | IC50 (ZIKV; post-infection test, ZIKV MOI 0.1, Vero cells, read-out: IC50 (50% inhibition concentration, virus replication)): 24.5 µM | effect on growth of the virus (viral titer) (ZIKV; post-infection, four concentrations from CC20 to CC20/8, 3 and 5 d.p.i.): prevents the growth of the virus in both cases | SI (selectivity index) (ZIKV; ratio between the CC50 and IC50 values): 11.9 | CC50 (Vero cells [4]; read-out: CC50 (50% cytotoxic concentration)): 291 µM | CC20 (20% cytotoxic concentration) (Vero cells [4]): 60.50 µM and 60.5 µM

CC(C)(O)c1cn(CN2C(=O)c3ccccc3C2=O)nn1 [Compound 1]
CC50 at 5 days [1]: 680 µM | CC20 (20% cytotoxic concentration) (Vero cells [2]): 177.10 µM

CC(=O)OCC1OC(n2cc(CNC3=C(Br)C(=O)c4ccccc4C3=O)nn2)C(OC(C)=O)C(OC(C)=O)C1OC(C)=O (centres unmarked) [Compound 7]
CC50 at 5 days [1]: 334 µM | CC20 (20% cytotoxic concentration) (Vero cells [2]): 119.10 µM

O=C1C=C(NCCn2cc(CCCO)nn2)C(=O)c2ccccc21 [Compound 5a, 2-[2-(4-(3-Hydroxypropyl)-1H-1,2,3-triazol-1-yl)]-ethylamino-1,4-naphthoquinone]
CC50 at 5 days [1]: 294 µM | concentration until which cells remain viable (Vero cells [2]): ≤ 400 µM | CC20 (20% cytotoxic concentration) (Vero cells [2]): 74.85 µM | melting point: 143 to 145 °C

CC(=O)OC[C@H]1O[C@H](OCCc2cn(C3=CC(=O)c4ccccc4C3=O)nn2)C=C[C@@H]1OC(C)=O [Compound 6a]
CC50 at 5 days [1]: 68 µM | CC20 (20% cytotoxic concentration) (Vero cells [2]): 39.92 µM

CC(C)(O)c1cn(CCNC2=CC(=O)c3ccccc3C2=O)nn1 [Compound 5b]
CC50 at 5 days [1]: 298 µM | concentration until which cells remain viable (Vero cells [2]): ≤ 400 µM | CC20 (20% cytotoxic concentration) (Vero cells [2]): 66.93 µM
